# Experimental data taken from ChEMBL document CHEMBL4138123, “Design, synthesis and biological evaluation of novel pyrazolochalcones as potential modulators of PI3K/Akt/mTOR pathway and inducers of apoptosis in breast cancer cells” (Eur J Med Chem, 2017).
# Experiments:
# Assay type in all cases: functional
# Malme-3M [1] = experiment: Cytotoxicity against human MALME-3M cells assessed as cell growth at 1 uM after 48 hrs by sulforhodamine B assay relative to control; details: read-out: Activity
# SF-268 = experiment: Cytotoxicity against human SF268 cells assessed as cell growth at 0.01 uM after 48 hrs by sulforhodamine B assay relative to control; details: SF-268, 48 h, read-out: Activity
# MDA-MB-468 [2] = experiment: Cytotoxicity against human MDA-MB-468 cells assessed as cell growth at 1 uM after 48 hrs by sulforhodamine B assay relative to control; details: MDA-MB-468, 48 h, read-out: Activity
# M14 [3] = experiment: Cytotoxicity against human M14 cells assessed as cell growth at 10 uM after 48 hrs by sulforhodamine B assay relative to control; details: M14, 48 h, read-out: Activity
# A498 [4] = experiment: Cytotoxicity against human A498 cells assessed as cell growth at 0.1 uM after 48 hrs by sulforhodamine B assay relative to control; details: A498, 48 h, read-out: Activity
# UO-31 [5] = experiment: Cytotoxicity against human UO31 cells assessed as cell growth at 0.01 uM after 48 hrs by sulforhodamine B assay relative to control; details: UO-31, 48 h, read-out: Activity
# Malme-3M [6] = experiment: Cytotoxicity against human MALME-3M cells assessed as cell growth at 10 uM after 48 hrs by sulforhodamine B assay relative to control; details: read-out: Activity
# COLO 205 [7] = experiment: Cytotoxicity against human COLO205 cells assessed as cell growth at 100 uM after 48 hrs by sulforhodamine B assay relative to control; details: COLO 205, 48 h, read-out: Activity
# HCT-15 = experiment: Cytotoxicity against human HCT15 cells assessed as cell growth at 0.1 uM after 48 hrs by sulforhodamine B assay relative to control; details: HCT-15, 48 h, read-out: Activity
# NCI-H23 = experiment: Cytotoxicity against human NCI-H23 cells assessed as cell growth at 1 uM after 48 hrs by sulforhodamine B assay relative to control; details: NCI-H23, 48 h, read-out: Activity
# A498 [8] = experiment: Cytotoxicity against human A498 cells assessed as cell growth at 100 uM after 48 hrs by sulforhodamine B assay relative to control; details: A498, 48 h, read-out: Activity
# HT-29 = experiment: Cytotoxicity against human HT-29 cells assessed as cell growth at 1 uM after 48 hrs by sulforhodamine B assay relative to control; details: HT-29, 48 h, read-out: Activity
# 786-0 = experiment: Cytotoxicity against human 786-0 cells assessed as cell growth at 0.1 uM after 48 hrs by sulforhodamine B assay relative to control; details: 786-0, 48 h, read-out: Activity
# K562 = experiment: Cytotoxicity against human K562 cells assessed as cell growth at 100 uM after 48 hrs by sulforhodamine B assay relative to control; details: K562, 48 h, read-out: Activity
# MDA-MB-468 [9] = experiment: Cytotoxicity against human MDA-MB-468 cells assessed as cell growth at 0.1 uM after 48 hrs by sulforhodamine B assay relative to control; details: MDA-MB-468, 48 h, read-out: Activity
# M14 [10] = experiment: Cytotoxicity against human M14 cells assessed as growth inhibition after 48 hrs by sulforhodamine B assay; details: M14, 48 h
# SNB-19 = experiment: Cytotoxicity against human SNB19 cells assessed as cell growth at 1 uM after 48 hrs by sulforhodamine B assay relative to control; details: SNB-19, 48 h, read-out: Activity
# IGROV-1 [11] = experiment: Cytotoxicity against human IGROV1 cells assessed as cell growth at 100 uM after 48 hrs by sulforhodamine B assay relative to control; details: IGROV-1, 48 h, read-out: Activity
# IGROV-1 [12] = experiment: Cytotoxicity against human IGROV1 cells assessed as cell growth at 0.1 uM after 48 hrs by sulforhodamine B assay relative to control; details: IGROV-1, 48 h, read-out: Activity
# HCC 2998 = experiment: Cytotoxicity against human HCC2998 cells assessed as growth inhibition after 48 hrs by sulforhodamine B assay; details: HCC 2998, 48 h
# OVCAR-5 = experiment: Cytotoxicity against human OVCAR5 cells assessed as cell growth at 100 uM after 48 hrs by sulforhodamine B assay relative to control; details: OVCAR-5, 48 h, read-out: Activity
# RXF 393 = experiment: Cytotoxicity against human RXF393 cells assessed as cell growth at 10 uM after 48 hrs by sulforhodamine B assay relative to control; details: RXF 393, 48 h, read-out: Activity
# Malme-3M [13] = experiment: Cytotoxicity against human MALME-3M cells assessed as cell growth at 100 uM after 48 hrs by sulforhodamine B assay relative to control; details: read-out: Activity
# HL-60(TB) = experiment: Cytotoxicity against human HL-60(TB) cells assessed as cell growth at 10 uM after 48 hrs by sulforhodamine B assay relative to control; details: HL-60, 48 h, read-out: Activity
# UO-31 [14] = experiment: Cytotoxicity against human UO31 cells assessed as cell growth at 1 uM after 48 hrs by sulforhodamine B assay relative to control; details: UO-31, 48 h, read-out: Activity
# OVCAR-3 = experiment: Cytotoxicity against human OVCAR3 cells assessed as cell growth at 1 uM after 48 hrs by sulforhodamine B assay relative to control; details: OVCAR-3, 48 h, read-out: Activity
# MDA-MB-231 = experiment: Cytotoxicity against human MDA-MB-231 cells assessed as cell growth at 100 uM after 48 hrs by sulforhodamine B assay relative to control; details: MDA-MB-231, 48 h, read-out: Activity
# COLO 205 [15] = experiment: Cytotoxicity against human COLO205 cells assessed as cell growth at 1 uM after 48 hrs by sulforhodamine B assay relative to control; details: COLO 205, 48 h, read-out: Activity
# HOP-62 = experiment: Cytotoxicity against human HOP62 cells assessed as cell growth at 0.01 uM after 48 hrs by sulforhodamine B assay relative to control; details: HOP-62, 48 h, read-out: Activity
# MCF7 = experiment: Cytotoxicity against human MCF7 cells assessed as growth inhibition after 48 hrs by sulforhodamine B assay; details: MCF7, 48 h
# NCI-H322M = experiment: Cytotoxicity against human NCI-H322M cells assessed as cell growth at 0.1 uM after 48 hrs by sulforhodamine B assay relative to control; details: read-out: Activity
# M14 [16] = experiment: Cytotoxicity against human M14 cells assessed as cell growth at 0.1 uM after 48 hrs by sulforhodamine B assay relative to control; details: M14, 48 h, read-out: Activity
# NCI-H226 = experiment: Cytotoxicity against human NCI-H226 cells assessed as cell growth at 100 uM after 48 hrs by sulforhodamine B assay relative to control; details: NCI-H226, 48 h, read-out: Activity
# COLO 205 [17] = experiment: Cytotoxicity against human COLO205 cells assessed as cell growth at 0.01 uM after 48 hrs by sulforhodamine B assay relative to control; details: COLO 205, 48 h, read-out: Activity
# UO-31 [18] = experiment: Cytotoxicity against human UO31 cells assessed as cell growth at 100 uM after 48 hrs by sulforhodamine B assay relative to control; details: UO-31, 48 h, read-out: Activity
# ACHN = experiment: Cytotoxicity against human ACHN cells assessed as growth inhibition after 48 hrs by sulforhodamine B assay
# SR = experiment: Cytotoxicity against human SR cells assessed as cell growth at 0.1 uM after 48 hrs by sulforhodamine B assay relative to control; details: read-out: Activity
smiles,measurement,setting,value
COc1ccc(-c2cc(/C=C/C(=O)c3cc(OC)c(OC)c(OC)c3)[nH]n2)cc1OC,growth at 1 µM,Malme-3M [1],93%
same,growth at 0.01 µM,SF-268,99%
same,growth at 1 µM,MDA-MB-468 [2],66%
same,growth at 10 µM,M14 [3],-70%
same,growth at 0.1 µM,A498 [4],89%
same,growth at 0.01 µM,UO-31 [5],88%
same,growth at 10 µM,Malme-3M [6],-25%
same,growth at 100 µM,COLO 205 [7],-88%
same,growth at 0.1 µM,HCT-15,90%
same,growth at 1 µM,NCI-H23,87%
same,growth at 100 µM,A498 [8],-91%
same,growth at 1 µM,HT-29,68%
same,growth at 0.1 µM,786-0,91%
same,growth at 100 µM,K562,-16%
same,growth at 0.1 µM,MDA-MB-468 [9],91%
same,GI50,M14 [10],1.8 µM
same,LC50 (concentration killing 50% of cells),M14 [10],7.54 µM
same,TGI,M14 [10],3.69 µM
same,growth at 1 µM,SNB-19,77%
same,growth at 100 µM,IGROV-1 [11],-72%
same,growth at 0.1 µM,IGROV-1 [12],97%
same,GI50,HCC 2998,1.9 µM
same,LC50,HCC 2998,6.09 µM
same,TGI,HCC 2998,3.4 µM
same,growth at 100 µM,OVCAR-5,-70%
same,growth at 10 µM,RXF 393,-80%
same,growth at 100 µM,Malme-3M [13],-62%
same,growth at 10 µM,HL-60(TB),2%
same,growth at 1 µM,UO-31 [14],67%
same,growth at 1 µM,OVCAR-3,84%
same,growth at 100 µM,MDA-MB-231,-71%
same,growth at 1 µM,COLO 205 [15],89%
same,growth at 0.01 µM,HOP-62,92%
same,GI50,MCF7,1.06 µM
same,TGI,MCF7,2.5 µM
same,growth at 0.1 µM,NCI-H322M,88%
same,growth at 0.1 µM,M14 [16],92%
same,growth at 100 µM,NCI-H226,-43%
same,growth at 0.01 µM,COLO 205 [17],99%
same,growth at 100 µM,UO-31 [18],-93%
same,GI50,ACHN,1.45 µM
same,LC50,ACHN,5.5 µM
same,TGI,ACHN,2.82 µM
same,growth at 0.1 µM,SR,73%
